Measured values published in EP3181118B1, “SYNERGISTIC COMBINATION OF TXNR INHIBITORS AND ASCORBATE FOR TREATMENT OF B CELL MALIGNANCIES” (Warszawski Uniwersytet Medyczny, priority 2015, dated 2017).
Like-named read-outs stand apart in the source and are kept apart here.

How the values were obtained:
[1] = system: Raji cells; assay: MTT assay, cytostatic/cytotoxic effects; assay type: cell-based, human; settings: 48 hours, Fig. 1
Protocol: Raji cells were grown in RPMI medium supplemented with 10% fetal bovine serum and antibiotic/antimycotic solution. Raji cells were incubated for 15 min at 37 °C with 100 µM or 200 µM L-ASC and then TXNR inhibitors, SK053 or AUR, were added and the cells were cultured for additional 48 hours. Cytostatic/cytotoxic effects of treatment were assessed by:
(a) MTT (3-[4,5-dimethylthiazol-2-yl]-2,5-diphenyltetrazolium bromide) assay
20 µl of MTT (5mg/ml in PBS) was added to 100 µl of cells and maintained in cell culture conditions. After 2 hours, 100 µl of solubilization buffer (10% SDS, 0,01N HCl) was added to each well and plates were maintained in a cell culture incubator overnight. The absorbance was measured at 560 nm using a microplate reader (ASYS UVM 340, Biochrom). The relative viability was calculated according to the following formula: % viability = [(Am - Ab)/(Ac - Ab)] × 100%, where Am is the measured absorbance, Ab is the background absorbance, and Ac is the absorbance of vehiculum-treated controls (DMSO).

[2] = system: adult rats; settings: cited from earlier work
[3] = system: Raji cells; assay: Number of dead cells by propidium iodide staining, flow cytometry; assay type: cell-based, human; settings: 48 hours, Fig. 2; for propidium iodide-positive cells (dead cells): compound alone (L-ASC 100 µM)
Protocol: Raji cells were grown in RPMI medium supplemented with 10% fetal bovine serum and antibiotic/antimycotic solution. […] Cytostatic/cytotoxic effects of treatment were assessed by:
(b) Quantitation of the number of dead cells with propidium iodide staining using flow cytometry
100 µl of cells were mixed with 100 µl of propidium iodide solution (4 µg/ml in PBS) and the number of propidium iodide-positive cells (dead cells) was assessed using flow cytometer Accuri C6.

[4] = system: adult mice; settings: cited from earlier work
[5] = system: normal B cells isolated from human tonsils; assay: Non-viable cells by propidium iodide staining in normal B cells; assay type: cell-based; settings: TXNR inhibitor in combination with L-ASC, 48 hours, three healthy donors, Fig. 5
Protocol: Human tonsils were derived from subjects undergoing tonsillectomy. After resection, tonsils were cut into small pieces and incubated in the RPMI medium supplemented with collagenase and DNase for 30 min at 37 °C with gentle shaking and filtered through 70 µm cell strainer. After washing in PBS, mononuclear cells were isolated with Histopaque 1077 density gradient and subjected to CD19 negative selection using EasySep™ Human B Cell Enrichment Kit ([…] Technologies). The purity of isolated B cells exceeded 95%. Subsequently, B cells were suspended in RPMI medium supplemented with 10% fetal bovine serum and antibiotic/antimycotic solution, and incubated with L-ASC, SK053, AUR, exactly as Raji cells (described in Example 1). After 48 hours of incubation, the number of non-viable cells was determined by flow cytometry, as the fraction of propidium iodide positive cells. […] This experiment was repeated in three different healthy donors.

[6] = cited from earlier work
[7] = system: Raji cells; assay: Intracellular ROS level, CM-H2-DCFDA fluorescent probe, flow cytometry; assay type: cell-based, human
Protocol: The level of intracellular ROS in Raji cells treated with L-ASC and SK053 alone or in combination was evaluated. Raji cells were loaded with CM-H2-DCFDA fluorescent probe (Molecular Probes) according to the manufacturer's protocol, using 1 µM dye concentration for 30 min. at 37 °C. […] After 8 hours cells were harvested in PBS and the intensity of green fluorescence was analyzed by flow cytometry (Accuri C6).

[8] = system: advanced cancers; settings: patients with advanced cancers, L-ASC-treated subjects; cited from earlier work
[9] = cited from earlier work; remark: listed apart in the source
[10] = system: lymphoma cells; settings: lymphoma cells in vitro; cited from earlier work
[11] = system: Raji cells; assay: Comparison of ascorbate stereoisomers and oxidized form combined with TXNR inhibitors (Fig. 3); assay type: cell-based, human; settings: ascorbate form combined with SK053 or AUR

CC(=O)OC[C@H]1O[C@@H]([S-])[C@H](OC(C)=O)[C@@H](OC(C)=O)[C@@H]1OC(C)=O.CCP(CC)CC.[Au+] [AUR, (2,3,4,6-tetra-O-acetyl-1-thio-β-D-glucopyranosato-S-) (triethyl-phosphine) gold complex]
cytostatic/cytotoxic effects of TXNR inhibitor in combination with L-ASC ([1]; in combination with 100 µM or 200 µM L-ASC): remarkably increased the cytostatic/cytotoxic effects | acute oral LD50 ([2]; adult rats, oral): 265 mg/kg | minimum lethal dose ([2]; rats): 30 mg/kg | dead cells ([3]; TXNR inhibitor in combination with 100 µM L-ASC): ~100% | propidium iodide-positive cells (dead cells) [3]: < 10% | acute oral LD50 [4]: 310 mg/kg | synergistic cytotoxic effect with L-ASC, fraction of propidium iodide positive cells [5]: synergistic cytotoxic effect between none of the TXNR inhibitors and L-ASC was observed | labelled gold excreted ([6]; by day 10, total): 77% | labelled gold excreted with feces ([6]; by day 10): 73% | labelled gold excreted with urine ([6]; by day 10): 4% | AUR gold bound to red blood cells ([6]; in blood): approximately 40% | AUR gold bound to serum proteins ([6]; in blood): 60% | oral dose absorbed ([6]; oral, radiolabelled AUR): approximately 25% | peak plasma concentrations ([6]; oral, radiolabelled AUR): 0.3 to 0.4 µM | time to reach peak plasma concentrations ([6]; oral, radiolabelled AUR): 1 to 2 h | mean plasma half-life ([6]; radiolabelled AUR): 17 days | labelled gold retained in the body ([6]; six months after a single dose): 0,4%

O=C1O[C@H]([C@@H](O)CO)C(O)=C1O [L-ASC, L-ascorbate]
ROS levels in the presence of catalase ([7]; compound alone, with 100 µg/ml catalase, Fig. 4B): at the control levels | ROS levels ([7]; compound alone: 100 µM ASC or 20 µM SK053, 8 hours, Fig. 4A): only slightly increased ROS levels | increased mean survival time (MST) [8]: over 4 fold | plasma concentration ([9]; high oral doses): approximately 220 µM | L-ASC plasma concentrations ([9]; intravenous (i.v.) delivery): up to 20 mM | L-ASC plasma concentrations ([9]; oral administration, maximal): ≤ 300 µM | peak plasma concentrations ([9]; slow i.v. infusion of high doses): over 10 mM | viability of Raji cells ([1]; L-ASC alone at 100 µM and 200 µM): did not affect the viability | LD50 [10]: ~0,5 mM | propidium iodide-positive cells (dead cells) [3]: < 10%

O=C1O[C@H]([C@@H](O)CO)C(=O)C1=O [L-DHA, dehydroascorbic acid]
interaction with TXNR inhibitors (SK053, AUR), cytotoxicity to Raji cells [11]: had no impact on cytotoxicity
